Experimental data taken from patent publication US11623919B2, “Heterocyclic P2X7 antagonists” (AXXAM S.P.A., priority 2017, dated 2023).

How the values were obtained:
Assay in all cases: Screen Quest Fluo-8 No Wash Calcium Assay (Bz-ATP evoked Ca2+ influx, FLIPR)
Type in all cases: cell-based
P2X7 receptor [1] = biological target: T1, P2X7 receptor (Homo sapiens, UniProt Q99572); design: hP2X7 (IC50; nM); other: hP2X7; HEK-293 cells stably transfected with P2X7 receptor, Bz-ATP at EC80, Fluo-8 NW; potency; conditions: hP2X7; HEK-293 cells stably transfected with P2X7 receptor, Bz-ATP at EC80, Fluo-8 NW; potency ranges A-D
T1 sequence (Q99572 1-595): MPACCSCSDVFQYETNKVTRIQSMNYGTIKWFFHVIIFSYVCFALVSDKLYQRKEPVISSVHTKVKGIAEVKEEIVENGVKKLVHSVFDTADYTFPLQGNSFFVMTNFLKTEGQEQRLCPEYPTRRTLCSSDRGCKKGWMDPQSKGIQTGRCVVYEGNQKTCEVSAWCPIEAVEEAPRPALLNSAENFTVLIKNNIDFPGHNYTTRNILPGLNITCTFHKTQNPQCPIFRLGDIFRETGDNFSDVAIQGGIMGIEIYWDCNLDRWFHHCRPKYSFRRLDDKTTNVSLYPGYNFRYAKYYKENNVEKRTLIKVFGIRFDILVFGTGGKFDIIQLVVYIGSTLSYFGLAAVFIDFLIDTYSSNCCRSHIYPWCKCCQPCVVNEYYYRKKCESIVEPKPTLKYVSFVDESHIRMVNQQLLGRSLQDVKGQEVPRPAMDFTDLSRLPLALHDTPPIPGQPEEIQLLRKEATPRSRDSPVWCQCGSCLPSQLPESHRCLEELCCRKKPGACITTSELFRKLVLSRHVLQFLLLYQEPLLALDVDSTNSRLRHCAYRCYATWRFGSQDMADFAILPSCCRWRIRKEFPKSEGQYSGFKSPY
In short: (§1)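 HEK-293 cells stably expressing P2X7 were loaded with Fluo-8 NW for 1 h at RT, then given compound, and 5 min later Bz-ATP at EC80. Fluorescence was read by FLIPR in low divalent cation buffer (0.3 mM Ca2+, 0 mM Mg2+). IC50 came from percent inhibition relative to reference antagonist A438079.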

P2X7 receptor [2] = biological target: T2, P2X7 receptor (Mus musculus, UniProt Q9Z1M0); conditions: mP2X7; HEK-293 cells stably transfected with P2X7 receptor, Bz-ATP at EC80, Fluo-8 NW; potency ranges A-D
T2 construct: mP2X7 (IC50; nM); other: mP2X7; HEK-293 cells stably transfected with P2X7 receptor, Bz-ATP at EC80, Fluo-8 NW; potency
T2 sequence (Q9Z1M0 1-595): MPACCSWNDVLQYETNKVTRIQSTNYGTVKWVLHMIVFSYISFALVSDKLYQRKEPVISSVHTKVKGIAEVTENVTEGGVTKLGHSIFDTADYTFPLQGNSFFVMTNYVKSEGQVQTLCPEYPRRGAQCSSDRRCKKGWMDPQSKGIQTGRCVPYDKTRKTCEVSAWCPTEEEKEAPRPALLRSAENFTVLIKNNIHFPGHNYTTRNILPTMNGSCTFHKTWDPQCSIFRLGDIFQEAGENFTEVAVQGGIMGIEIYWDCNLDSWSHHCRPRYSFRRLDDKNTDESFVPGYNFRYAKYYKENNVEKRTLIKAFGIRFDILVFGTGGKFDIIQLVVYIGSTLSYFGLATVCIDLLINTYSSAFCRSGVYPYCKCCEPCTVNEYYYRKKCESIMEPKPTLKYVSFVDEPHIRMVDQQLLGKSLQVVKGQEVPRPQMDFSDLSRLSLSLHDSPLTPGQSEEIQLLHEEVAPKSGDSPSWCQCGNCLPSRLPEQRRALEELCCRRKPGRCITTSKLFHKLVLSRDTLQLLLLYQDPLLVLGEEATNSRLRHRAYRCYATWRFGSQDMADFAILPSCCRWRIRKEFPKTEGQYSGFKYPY
In short: as §1

P2X7 receptor [3] = biological target: T3, P2X7 receptor (Rattus norvegicus, UniProt Q64663); conditions: rP2X7; HEK-293 cells stably transfected with P2X7 receptor, Bz-ATP at EC80, Fluo-8 NW; potency ranges A-D
T3 construct: rP2X7 (IC50; nM); other: rP2X7; HEK-293 cells stably transfected with P2X7 receptor, Bz-ATP at EC80, Fluo-8 NW; potency
T3 sequence (Q64663 1-595): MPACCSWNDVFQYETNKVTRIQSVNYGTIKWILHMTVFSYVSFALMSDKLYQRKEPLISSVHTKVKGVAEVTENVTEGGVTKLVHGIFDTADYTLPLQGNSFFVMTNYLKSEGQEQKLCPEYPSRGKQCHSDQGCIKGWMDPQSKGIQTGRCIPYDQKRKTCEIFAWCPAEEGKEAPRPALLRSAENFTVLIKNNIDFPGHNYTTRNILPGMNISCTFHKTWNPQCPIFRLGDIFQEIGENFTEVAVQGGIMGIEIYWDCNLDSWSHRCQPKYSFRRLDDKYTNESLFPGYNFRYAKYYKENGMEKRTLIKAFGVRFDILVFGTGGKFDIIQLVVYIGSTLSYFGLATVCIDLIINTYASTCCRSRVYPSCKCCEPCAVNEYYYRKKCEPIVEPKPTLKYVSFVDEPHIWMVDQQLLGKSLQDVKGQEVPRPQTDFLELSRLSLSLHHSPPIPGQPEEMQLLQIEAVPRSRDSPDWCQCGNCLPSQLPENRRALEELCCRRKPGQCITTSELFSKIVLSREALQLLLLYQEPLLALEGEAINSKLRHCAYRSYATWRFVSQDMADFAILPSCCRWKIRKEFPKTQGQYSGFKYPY
In short: as §1

IC50 (P2X7 receptor [1]) [nM] | IC50 (P2X7 receptor [2]) [nM] | IC50 (P2X7 receptor [3]) [nM] | SMILES
1000 to 10000 | 1000 to 10000 | 1000 to 10000 | O=c1onc(Cc2c(F)cccc2Cl)n1Cc1c(F)cccc1Cl [Example 18, bis[(2-chloro-6-fluorophenyl)methyl]-4,5-dihydro-1,2,4-oxadiazol-5-one]
< 200 | 200 to 1000 | < 200 | O=c1onc(CC2CCC(F)(F)CC2)n1Cc1ccccc1Cl [Example 170, 4-[(2-chlorophenyl)methyl]-3-[(4,4-difluorocyclohexyl)methyl]-4,5-dihydro-1,2,4-oxadiazol-5-one]
1000 to 10000 | 200 to 1000 | 200 to 1000 | O=c1onc(CN2CCc3ccccc3C2)n1Cc1c(F)cccc1Cl [Example 244, 4-[(2-chloro-6-fluorophenyl)methyl]-3-(1,2,3,4-tetrahydroisoquinolin-2-ylmethyl)-4,5-dihydro-1,2,4-oxadiazol-5-one]
< 200 | < 200 | < 200 | CC1CC(F)(F)CCN1Cc1noc(=O)n1Cc1c(F)cccc1Cl (stereo not drawn) [Example 226, 4-[(2-chloro-6-fluorophenyl)methyl]-3-[(4,4-difluoro-2-methylpiperidin-1-yl)methyl]-4,5-dihydro-1,2,4-oxadiazol-5-one]
1000 to 10000 | > 10000 | 1000 to 10000 | O=c1onc(Cc2ccccc2F)n1Cc1c(F)cccc1Cl [Example 19, 4-[(2-chloro-6-fluorophenyl)methyl]-3-[(2-fluorophenyl)methyl]-4,5-dihydro-1,2,4-oxadiazol-5-one]
> 10000 | > 10000 | > 10000 | O=c1onc(Cc2c(F)cccc2Cl)n1Cc1cnco1 [Example 40, 3-[(2-chloro-6-fluorophenyl)methyl]-4-(1,3-oxazol-5-ylmethyl)-4,5-dihydro-1,2,4-oxadiazol-5-one]
> 10000 | > 10000 | > 10000 | O=c1onc(Cc2c(F)cccc2Cl)n1Cc1nccs1 [Example 34, 3-[(2-chloro-6-fluorophenyl)methyl]-4-(1,3-thiazol-2-ylmethyl)-4,5-dihydro-1,2,4-oxadiazol-5-one]
> 10000 | > 10000 | 1000 to 10000 | O=c1onc(Cc2c(F)cccc2Cl)n1CC1COCCO1 (stereo not drawn) [Example 98, 3-[(2-chloro-6-fluorophenyl)methyl]-4-(1,4-dioxan-2-ylmethyl)-4,5-dihydro-1,2,4-oxadiazol-5-one]
1000 to 10000 | 1000 to 10000 | 1000 to 10000 | O=c1onc(Cc2ccc(F)cc2F)n1Cc1c(F)cccc1Cl [Example 15, 4-[(2-chloro-6-fluorophenyl)methyl]-3-[(2,4-difluorophenyl)methyl]-4,5-dihydro-1,2,4-oxadiazol-5-one]

More lines, now with the values behind:

SMILES | IC50 (P2X7 receptor [1]) [nM] | IC50 (P2X7 receptor [2]) [nM] | IC50 (P2X7 receptor [3]) [nM]
Cc1ncccc1Cc1noc(=O)n1Cc1ccc(F)cc1 [Example 216, 4-[(4-fluorophenyl)methyl]-3-[(2-methylpyridin-3-yl)methyl]-4,5-dihydro-1,2,4-oxadiazol-5-one] | 1000 to 10000 | > 10000 | 1000 to 10000
CC(c1ccc(F)cc1)n1c(Cc2ccc(F)cc2)noc1=O (stereo not drawn) [Example 11, 4-[1-(4-fluorophenyl)ethyl]-3-[(4-fluorophenyl)methyl]-4,5-dihydro-1,2,4-oxadiazol-5-one] | 1000 to 10000 | 1000 to 10000 | 1000 to 10000
COc1ccc(Cc2noc(=O)n2CC2CCCCC2)cc1 [Example 112, 4-(cyclohexylmethyl)-3-[(4-methoxyphenyl)methyl]-4,5-dihydro-1,2,4-oxadiazol-5-one] | 1000 to 10000 | 1000 to 10000 | 200 to 1000
CC(c1ccc(F)cc1)n1c(CC2CCCCC2)noc1=O (stereo not drawn) [Example 163, 3-(cyclohexylmethyl)-4-[1-(4-fluorophenyl)ethyl]-4,5-dihydro-1,2,4-oxadiazol-5-one] | 1000 to 10000 | 1000 to 10000 | 1000 to 10000
O=c1onc(CC2CCC(F)(F)CC2)n1Cc1ccc(C(F)(F)F)cc1 [Example 166, 3-[(4,4-difluorocyclohexyl)methyl]-4-{[4-(trifluoromethyl)phenyl]methyl}-4,5-dihydro-1,2,4-oxadiazol-5-one] | 1000 to 10000 | 1000 to 10000 | 1000 to 10000
Cn1ccnc1Cn1c(CC2CCC(F)(F)CC2)noc1=O [Example 201, 3-[(4,4-difluorocyclohexyl)methyl]-4-[(1-methyl-1H-imidazol-2-yl)methyl]-4,5-dihydro-1,2,4-oxadiazol-5-one] | > 10000 | > 10000 | 1000 to 10000
O=c1onc(Cc2c(F)cccc2Cl)n1CC1CCC2(CC1)OCCO2 [Example 70, 3-[(2-chloro-6-fluorophenyl)methyl]-4-{1,4-dioxaspiro[4.5]decan-8-ylmethyl}-4,5-dihydro-1,2,4-oxadiazol-5-one] | 200 to 1000 | 1000 to 10000 | 1000 to 10000
O=c1onc(Cc2ccc(F)cc2)n1Cc1ccc(F)cc1F [Example 53, 4-[(2,4-difluorophenyl)methyl]-3-[(4-fluorophenyl)methyl]-4,5-dihydro-1,2,4-oxadiazol-5-one] | > 10000 | > 10000 | 200 to 1000
O=c1onc(Cc2c(F)cccc2Cl)n1Cc1ccccc1C(F)(F)F [Example 23, 3-[(2-chloro-6-fluorophenyl)methyl]-4-{[2-(trifluoromethyl)phenyl]methyl}-4,5-dihydro-1,2,4-oxadiazol-5-one] | 1000 to 10000 | > 10000 | 1000 to 10000
O=c1onc(C(O)c2cccc(C(F)(F)F)c2Cl)n1Cc1ccccc1 (stereo not drawn) [Example 136, 4-benzyl-3-{[2-chloro-3-(trifluoromethyl)phenyl](hydroxy)methyl}-4,5-dihydro-1,2,4-oxadiazol-5-one] | 1000 to 10000 | > 10000 | > 10000
CC(c1c(F)cccc1Cl)c1noc(=O)n1CC1CCCCC1 (stereo not drawn) [Example 122, 3-[1-(2-chloro-6-fluorophenyl)ethyl]-4-(cyclohexylmethyl)-4,5-dihydro-1,2,4-oxadiazol-5-one] | > 10000 | > 10000 | 1000 to 10000
O=c1onc(CN2CCOc3ccccc32)n1CC1CCC(F)(F)CC1 [Example 231, 4-[(4,4-difluorocyclohexyl)methyl]-3-(3,4-dihydro-2H-1,4-benzoxazin-4-ylmethyl)-4,5-dihydro-1,2,4-oxadiazol-5-one] | < 200 | < 200 | < 200
